Data as given in article PMC10010643 (Cancer Chemotherapy and Pharmacology, 2023).

Assay: Safety and tolerability, Part A single ascending-dose phase in healthy participants
Assay type: in vivo, human
Experimental: A further two cohorts were recruited. […] Each individual participated in one treatment period only, with the exception of the food-effect cohort (cohort A3) in which there were two treatment periods separated by at least 7 days washout. Participants resided at the Clinical Research Unit (CRU) from 1 day ahead of dosing (day − 1) to day 3 and returned for a follow-up visit 5–7 days after their final dose. For all cohorts, doses were administered in the fasted state in the morning of day 1 of Treatment Period 1. In the food-effect cohort, doses were given 30 min after the start of a high-fat breakfast (973 calories total: approximately 150 protein calories, 250 carbohydrate calories, and 500–600 fat calories) on day 1 of Treatment Period 2. For cohorts A1 to A5 in Treatment Period 1, dosing occurred such that one pair (one active and one placebo) were dosed at least 24 h before the remaining participants. Continuation to dose those who remained was at the investigator’s discretion. Escalating doses were administered following satisfactory sponsor and investigator review of the safety and tolerability data (up to 48 h post-final dose) and PK data (up to 24 h post-final dose) from the lower dose levels.
Safety and tolerability assessments included adverse event (AE) monitoring, physical examinations, laboratory assessments (hematology, clinical chemistry, and urinalysis), vital signs (blood pressure, pulse rate, and body temperature) and ECG.
No formal statistical assessment was performed for the safety analysis.

[1] = Part A 50 mg (1 x 50 mg), fasted

For OC[C@H]1O[C@H](Sc2cncc(Br)c2)[C@H](O)[C@@H](n2cc(-c3cc(F)c(F)c(F)c3)nn2)[C@H]1O [GB1211], the “Effect of food intake or capsule formulation on TEAEs” value (Part A) was “no effect”, the “Participants with a TEAE possibly related to treatment, GB1211” value (Part A) was 3 and the “Treatment- or dose-related trend in TEAEs” value (Part A) was “no apparent treatment- or dose-related trend”. The “TEAE Back pain, no. of AEs” value (Part A 5 mg, fasted) was 1, the “TEAE Back pain, participants” value (Part A 5 mg, fasted) was 1 (16.7%) n (%) and the “TEAE Constipation, participants” value (Part A 5 mg, fasted) was 0 n (%). The “TEAE Cough, participants” value (Part A 5 mg, fasted) was 0 n (%), the “TEAE Decreased appetite, participants” value (Part A 5 mg, fasted) was 0 n (%) and the “TEAE Diarrhea, no. of AEs” value (Part A 5 mg, fasted) was 1. The “TEAE Diarrhea, participants” value (Part A 5 mg, fasted) was 1 (16.7%) n (%), the “TEAE Dry mouth, participants” value (Part A 5 mg, fasted) was 0 n (%) and the “TEAE Dry skin, participants” value (Part A 5 mg, fasted) was 0 n (%). The “TEAE Dyspepsia, participants” value (Part A 5 mg, fasted) was 0 n (%), the “TEAE Gastrointestinal disorders, no. of AEs” value (Part A 5 mg, fasted) was 1 and the “TEAE Gastrointestinal disorders, participants” value (Part A 5 mg, fasted) was 1 (16.7%) n (%). For the same compound, the “TEAE General disorders and administration site conditions, no. of AEs” value (Part A 5 mg, fasted) was 1, the “TEAE General disorders and administration site conditions, participants” value (Part A 5 mg, fasted) was 1 (16.7%) n (%) and the “TEAE Headache, participants” value (Part A 5 mg, fasted) was 0 n (%). The “TEAE Infections and infestations, no. of AEs” value (Part A 5 mg, fasted) was 1, the “TEAE Infections and infestations, participants” value (Part A 5 mg, fasted) was 1 (16.7%) n (%) and the “TEAE Injury, poisoning and procedural complications, participants” value (“TEAE Injury” for short) (Part A 5 mg, fasted) was 0 n (%). The “TEAE Medical device site reaction, no. of AEs” value (Part A 5 mg, fasted) was 1, the “TEAE Medical device site reaction, participants” value (Part A 5 mg, fasted) was 1 (16.7%) n (%) and the “TEAE Metabolism and nutrition disorders, participants” value (Part A 5 mg, fasted) was 0 n (%). For the same compound, the “TEAE Musculoskeletal and connective tissue disorders, no. of AEs” value (Part A 5 mg, fasted) was 1, the “TEAE Musculoskeletal and connective tissue disorders, participants” value (Part A 5 mg, fasted) was 1 (16.7%) n (%) and the “TEAE Nasopharyngitis, no. of AEs” value (Part A 5 mg, fasted) was 1. The “TEAE Nasopharyngitis, participants” value (Part A 5 mg, fasted) was 1 (16.7%) n (%), the “TEAE Nervous system disorders, participants” value (“TEAE Nervous system disorders” below) (Part A 5 mg, fasted) was 0 n (%) and the “TEAE Pain, participants” value (Part A 5 mg, fasted) was 0 n (%). For the same compound, the “TEAE Rash, participants” value (Part A 5 mg, fasted) was 0 n (%), the “TEAE Respiratory, thoracic and mediastinal disorders, participants” value (Part A 5 mg, fasted) was 0 n (%) and the “TEAE Skin and subcutaneous tissue disorders, participants” value (Part A 5 mg, fasted) was 0 n (%). The “TEAE Wound, participants” value (Part A 5 mg, fasted) was 0 n (%), the “TEAE Back pain, participants” value (Part A 20 mg, fasted) was 0 n (%) and the “TEAE Constipation, participants” value (Part A 20 mg, fasted) was 0 n (%). The “TEAE Cough, participants” value (Part A 20 mg, fasted) was 0 n (%), the “TEAE Decreased appetite, participants” value (Part A 20 mg, fasted) was 0 n (%) and the “TEAE Diarrhea, participants” value (Part A 20 mg, fasted) was 0 n (%). For the same compound, the “TEAE Dry mouth, participants” value (Part A 20 mg, fasted) was 0 n (%), the “TEAE Dry skin, participants” value (Part A 20 mg, fasted) was 0 n (%) and the “TEAE Dyspepsia, participants” value (Part A 20 mg, fasted) was 0 n (%). For the same compound, the “TEAE Gastrointestinal disorders, participants” value (Part A 20 mg, fasted) was 0 n (%), the “TEAE General disorders and administration site conditions, no. of AEs” value (Part A 20 mg, fasted) was 1 and the “TEAE General disorders and administration site conditions, participants” value (Part A 20 mg, fasted) was 1 (16.7%) n (%). For the same compound, the “TEAE Headache, participants” value (Part A 20 mg, fasted) was 0 n (%), the “TEAE Infections and infestations, participants” value (Part A 20 mg, fasted) was 0 n (%) and the “TEAE Injury” value (Part A 20 mg, fasted) was 0 n (%). For the same compound, the “TEAE Medical device site reaction, participants” value (Part A 20 mg, fasted) was 0 n (%), the “TEAE Metabolism and nutrition disorders, participants” value (Part A 20 mg, fasted) was 0 n (%) and the “TEAE Musculoskeletal and connective tissue disorders, participants” value (Part A 20 mg, fasted) was 0 n (%). The “TEAE Nasopharyngitis, participants” value (Part A 20 mg, fasted) was 0 n (%), the “TEAE Nervous system disorders” value (Part A 20 mg, fasted) was 0 n (%) and the “TEAE Pain, no. of AEs” value (Part A 20 mg, fasted) was 1. The “TEAE Pain, participants” value (Part A 20 mg, fasted) was 1 (16.7%) n (%), the “TEAE Rash, participants” value (Part A 20 mg, fasted) was 0 n (%) and the “TEAE Respiratory, thoracic and mediastinal disorders, participants” value (Part A 20 mg, fasted) was 0 n (%). For the same compound, the “TEAE Skin and subcutaneous tissue disorders, participants” value (Part A 20 mg, fasted) was 0 n (%), the “TEAE Wound, participants” value (Part A 20 mg, fasted) was 0 n (%) and the “TEAE Back pain, participants” value [1] was 0 n (%). For the same compound, the “TEAE Constipation, participants” value [1] was 0 n (%), the “TEAE Cough, no. of AEs” value [1] was 1 and the “TEAE Cough, participants” value [1] was 1 (16.7%) n (%). The “TEAE Decreased appetite, participants” value [1] was 0 n (%), the “TEAE Diarrhea, participants” value [1] was 0 n (%) and the “TEAE Dry mouth, participants” value [1] was 0 n (%). The “TEAE Dry skin, participants” value [1] was 0 n (%), the “TEAE Dyspepsia, participants” value [1] was 0 n (%) and the “TEAE Gastrointestinal disorders, participants” value [1] was 0 n (%). The “TEAE General disorders and administration site conditions, participants” value [1] was 0 n (%), the “TEAE Headache, participants” value [1] was 0 n (%) and the “TEAE Infections and infestations, participants” value [1] was 0 n (%). The “TEAE Injury” value [1] was 0 n (%), the “TEAE Medical device site reaction, participants” value [1] was 0 n (%) and the “TEAE Metabolism and nutrition disorders, participants” value [1] was 0 n (%). For the same compound, the “TEAE Musculoskeletal and connective tissue disorders, participants” value [1] was 0 n (%), the “TEAE Nasopharyngitis, participants” value [1] was 0 n (%) and the “TEAE Nervous system disorders” value [1] was 0 n (%).
